Read-outs that look alike come from different tables or passages of the source. Where a SMILES comes first, the peptide text is derived from it. The star is where a group is joined. Cbz = O=C(OCc1ccccc1)*; CH2F = FC*
Legend:
S5 cells [1] = format: cell-based, Trichoplusia ni
S5 cells [2] = conditions: Zhang et al. 2005, cited from earlier work; for Effect of chelator on toxin-induced death: S5 cells pre-treated with chelator, then Cry1Ab toxin
S5 cells [3] = conditions: Zhang et al. 2005, cited from earlier work; for Effect of osmotic protectant on blebbing and swelling of toxin-exposed cells: 30 mM protectant
S5 cells [4] = format: cell-based, Trichoplusia ni; remark: listed apart in the source
H5 cells [5] = format: cell-based, Trichoplusia ni
S5 cells [6] = format: cell-based, Trichoplusia ni; remark: listed apart in the source
H5 cells [7] = conditions: cultured H5 cells without receptor; Zhang et al. 2005; cited from earlier work
S5 cells [8] = conditions: either stage of cytotoxicity; shown previously; cited from earlier work

O=C(O)CN(CCOCCOCCN(CC(=O)O)CC(=O)O)CC(=O)O [EGTA]
Cell death (S5 cells [1]): + (key: + = 80 ± 5% cell death; − = no cell death) | Effect of chelator on toxin-induced death (S5 cells [2]): fully susceptible

O=C(Nc1cc(C(=O)Nc2ccc(S(=O)(=O)O)cc2S(=O)(=O)O)cc(C(=O)Nc2ccc(S(=O)(=O)O)cc2S(=O)(=O)O)c1)Nc1cc(C(=O)Nc2ccc(S(=O)(=O)O)cc2S(=O)(=O)O)cc(C(=O)Nc2ccc(S(=O)(=O)O)cc2S(=O)(=O)O)c1 [NF449]
Decrease of relative toxicity (cell death) mediated by Cry1Ab (S5 cells [1]): 50%

OC[C@H]1O[C@H](OC[C@H]2O[C@H](O[C@]3(CO)O[C@H](CO)[C@@H](O)[C@@H]3O)[C@H](O)[C@@H](O)[C@@H]2O)[C@H](O)[C@@H](O)[C@H]1O [raffinose]
Fate of protectant-treated S5 cells after Cry1Ab exposure (S5 cells [2]; raffinose-treated cells): eventually died | Effect of osmotic protectant on blebbing and swelling of toxin-exposed cells (S5 cells [3]): arrested in the blebbing stage and did not swell

CC(C)Cn1c(=O)n(C)c(=O)c2[nH]cnc21 [IBMX]
Level of cAMP (S5 cells [4]): did not cause any elevation

COC(=O)Nc1nc2ccc(C(=O)c3cccs3)cc2[nH]1 [Nocodazole]
Cell death (S5 cells [1]; S5 cells treated with inhibitor, switched to inhibitor-free buffer before Cry1Ab toxin treatment, percent of dead cells by Trypan blue staining): + (+ = 80 ± 5% cell death)

OC[C@H]1O[C@@](CO)(O[C@H]2O[C@H](CO)[C@@H](O)[C@H](O)[C@H]2O)[C@@H](O)[C@@H]1O [Sucrose, sucrose]
Effect of osmotic protectant on blebbing and swelling of toxin-exposed cells (S5 cells [3]): partially prevented cell swelling

CO/C1=C\C(C)=C\[C@@H](C)[C@@H](O)[C@@H](C)C/C(C)=C/C=C/[C@H](OC)[C@@H]([C@@H](C)[C@@H](O)[C@H](C)[C@@]2(O)C[C@@H](O)[C@H](C)[C@@H](C(C)C)O2)OC1=O [Bafilomycin A]
Cell death (S5 cells [1]): + (key: + = 80 ± 5% cell death; − = no cell death)

Nc1ncnc2c1nc(Sc1ccc(Cl)cc1)n2[C@@H]1O[C@@H]2COP(=O)(O)O[C@H]2[C@H]1O [pCPT-cAMP]
Cell death with Cry1Ab after pre-treatment (S5 cells [1]): ~100% | Cell death without Cry1Ab treatment (S5 cells [1]): Neither FSK nor pCPT-cAMP alone was sufficient to bring about cell death

O=C(O)CN(CCN(CC(=O)O)CC(=O)O)CC(=O)O [EDTA]
Cell death (S5 cells [1]): − (key: + = 80 ± 5% cell death; − = no cell death) | Effect on Cry1Ab-induced toxicity and cell death (S5 cells [1]): prevented completely | Effect on Cry1Ab-induced cAMP levels (S5 cells [4]): virtually precluded any increase in cAMP levels | Effect on FSK induction of cAMP (S5 cells [4]): precluded FSK induction of cAMP | Effect of chelator on toxin-induced death (S5 cells [2]): completely abolished toxin-induced death

COC(=O)C[C@H](NC(=O)[C@H](C)NC(=O)[C@@H](NC(=O)OCc1ccccc1)C(C)C)C(=O)CF [Z-VAD-fmk] (Cbz-Val-Ala-Asp(OMe)-CH2F)
Cell death (S5 cells [1]): + (key: + = 80 ± 5% cell death; − = no cell death) | Effect on Cry1Ab-induced toxicity and cell death (S5 cells [1]): did not suppress

Cl.NCCc1ccc(S(=O)(=O)F)cc1 [Pefabloc]
Cell death (S5 cells [1]): + (key: + = 80 ± 5% cell death; − = no cell death) | Effect on Cry1Ab-induced toxicity and cell death (S5 cells [1]): had no effect

C[C@H]1O[C@@H](n2cnc3c(N)ncnc32)C[C@@H]1OP(=O)(O)OP(=O)(O)O [ddADP, 2′,5′-dideoxy-3′-ADP]
Reduction of number of cells undergoing cell death (S5 cells [1]): 50%

Cry1Ab toxin
cAMP production (S5 cells [4]): increased in a time-dependent manner | cAMP levels (H5 cells [5]): did not change | Externalization of phosphatidylserine or DNA fragmentation (S5 cells [6]): no externalization of phosphatidylserine or DNA fragmentation was observed | Time to cell swelling and lysis (S5 cells [3]; S5 cells): ≤ 40 min | Time to membrane blebbing after toxin exposure (S5 cells [3]; S5 cells): ≤ 20 min | Effect of toxin on cells (H5 cells [7]): not affected | Internalization of toxin (S5 cells [8]): not internalized

O=C(Nc1cccc(C(=O)Nc2ccc(S(=O)(=O)O)c3cc(S(=O)(=O)O)cc(S(=O)(=O)O)c23)c1)Nc1cccc(C(=O)Nc2ccc(S(=O)(=O)O)c3cc(S(=O)(=O)O)cc(S(=O)(=O)O)c23)c1 [NF023]
Effect on Cry1Ab toxicity (S5 cells [1]): did not have any effect

C=C1[C@@H](C)[C@H]2[C@H](Cc3ccccc3)NC(=O)[C@]23[C@H](OC(C)=O)/C=C/[C@@](C)(O)C(=O)[C@@H](C)C/C=C/[C@H]3[C@@H]1O [Cytochalasin D]
Cell death (S5 cells [1]): + (key: + = 80 ± 5% cell death; − = no cell death)

Cc1ccc(S(=O)(=O)N[C@@H](Cc2ccccc2)C(=O)CCl)cc1 [TPCK]
Cell death (S5 cells [1]): + (key: + = 80 ± 5% cell death; − = no cell death) | Effect on Cry1Ab-induced toxicity and cell death (S5 cells [1]): had no effect

From patent US20090196864A1 (priority 2005, published 2009)
